We go through 2 compounds from patent US6894038B2, “Use of biogenic estriol diester prodrugs for the treatment of autoimmune diseases” (Schering Aktiengesellschaft, priority 2002, dated 2005).

The test system of one data set is Lewis rat EAE model. Put plainly: Lewis rat acute EAE model, clinical score. In kind it is in vivo. To be noted: female Lewis rats, 1000 ug/rat s.c. on day 1 and day 15; chronic stage of disease; ANOVA vs vehicle p≦0.028; FIG. 1.
For data set [1] the following is noted: administered orally; cited from earlier work.
Data set [2] concerns experimental autoimmune encephalomyelitis (EAE). To be noted: levels equal to those found in pregnancy; Kim et al. 1999, Jansson et al. 1994; cited from earlier work.
The conditions of data set [3]: oral, 12 mg/day; Lindsay et al. 1979; cited from earlier work.
The conditions of data set [4]: Heithecker et al., 1991; cited from earlier work.
In data set [5] the test system is CD4+ lymphocytes of MS patients. Particulars: concentrations at a similar level as in pregnancy; Correale et al. 1998; cited from earlier work.

For the compound `CCCCCC(=O)Oc1ccc2c(c1)CC[C@@H]1[C@@H]2CC[C@@]2(C)[C@H]1C[C@@H](O)[C@@H]2OC(=O)CCCCC` [3,17β-di-n-hexanoyloxy-1,3,5(10)-estratriene-16α-ol], the “clinical score (EAE)” value in the data set on Lewis rat EAE model is listed as “efficacious in lowering the clinical score”.

As usually defined, the half-life is how long it takes for the measured level to halve. Consider `C[C@]12CC[C@@H]3c4ccc(O)cc4CC[C@H]3[C@@H]1C[C@@H](O)[C@@H]2O` [estriol], for which the bioavailability result in data set [1] is given as “low”. Also, in data set [2], the “amelioration of disease (EAE)” value is reported as “capable of ameliorating disease”. Also, the osteoprotective effects result in data set [3] was “not able to show the osteoprotective effects”. Moreover, the half-life in data set [4] was 1.5 to 5.3 h. Further, in data set [5], the “secretion of anti-inflammatory cytokine IL-10” value is given as “stimulated”.
